Experimental data from patent US20220402901A1 (Bial - R&D Investments, S.A., priority 2019, published 2022).
≈ marks a conversion by molar mass, not a printed value.

Assays:
[1] = Compound solubility in water; format: physicochemical; conditions: read-out: Solubility in H2O
[2] = molecular target: T1, Human acid ceramidase (hACR) (Homo sapiens, UniProt Q13510); assay: Acid ceramidase biochemical fluorescent assay (cell lysates overexpressing acid ceramidase, substrate Rbm14-12); conditions: 10 μg lysate protein, 1 hr preincubation at RT, pH 4.5, Rbm14-12 6.3 μM
T1 construct: expressed in transfected cells; lysates of cells overexpressing acid ceramidase
T1 sequence (Q13510 22-395): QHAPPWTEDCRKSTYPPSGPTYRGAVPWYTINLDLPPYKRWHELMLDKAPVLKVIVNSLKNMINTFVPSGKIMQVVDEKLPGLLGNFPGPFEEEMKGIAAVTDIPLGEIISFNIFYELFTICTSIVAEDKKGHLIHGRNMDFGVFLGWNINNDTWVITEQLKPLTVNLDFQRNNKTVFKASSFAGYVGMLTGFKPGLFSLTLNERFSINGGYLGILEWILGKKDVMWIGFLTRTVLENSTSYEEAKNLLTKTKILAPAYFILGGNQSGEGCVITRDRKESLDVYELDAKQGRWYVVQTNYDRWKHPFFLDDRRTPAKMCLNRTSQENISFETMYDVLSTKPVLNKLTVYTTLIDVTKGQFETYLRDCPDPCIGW
Method: The ability of exemplary compounds to inhibit acid ceramidase was measured.
Cell lysates overexpressing acid ceramidase were used as the enzyme source for compound potency determination in a biochemical fluorescent assay. Briefly, compounds were preincubated with 10 μg protein of cell lysates in a dose-response manner for 1 hr at RT in the assay buffer containing 25 mM NaAC and 100 mM NaCl, pH 4.5. The reaction was initiated by the addition of substrate Rbm14-12 at a final concentration of 6.3 μM. The reaction was run at RT for 1 hr before it was stopped by the addition of the stopping buffer containing 20% methanol (v/v), 1 mg/ml NaIO4, 0.1 M glycine, pH 10.6. The samples were incubated with the stopping buffer at RT for 1 hr to allow the fluorescent product to be formed. Finally the plate was read with SpectraMax i3 plate reader (Molecular Devices) at ex360 nm and em446 nm. Data were collected and used to determine the IC50 values of compounds by curve fitting to the four-parameter inhibition equation.
The symbol “A” indicates inhibition of less than 0.2 μM; the symbol “B” indicates inhibition in the range of 0.2 μM up to 1 μM; and the symbol “C” indicates inhibition of greater than 1 μM.

Structure (SMILES) | solubility [1] | IC50 [2]
Cn1c(=O)oc2cc(C3CC4CCC(C3)N4C(=O)NCCCCc3ccccc3)ccc21 (stereo not drawn) [Example 33, 3-(3-Methyl-2-oxo-1,3-benzoxazol-6-yl)-N-(4-phenylbutyl)-8-azabicyclo[3.2.1]octane-8-carboxamide] | 3.2 µM (≈ 1.39 µg/mL) | < 200 nM
CN1CCN(C(=O)NCCCCc2ccccc2)C(c2ccc3c(c2)oc(=O)n3C)C1 (stereo not drawn) [Example 40, 4-Methyl-2-(3-methyl-2-oxo-1,3-benzoxazol-6-yl)-N-(4-phenylbutyl)piperazine-1-carboxamide] | 224 µM (≈ 94.6 µg/mL) | > 1000 nM
CCCCCNC(=O)N1CCN(c2ccc3c(c2)oc(=O)n3C)CC1(C)C [Example 54, 2,2-Dimethyl-4-(3-methyl-2-oxo-1,3-benzoxazol-6-yl)-N-pentyl-piperazine-1-carboxamide] | 2.4 µM (≈ 0.899 µg/mL) | 200 to 1000 nM
CC(C)CNC(=O)N1CCC(c2ccc3c(c2)oc(=O)n3C)CC1 [Example 3, N-iso-Butyl 4-(3-methyl-2-oxo-1,3-benzoxazol-6-yl)piperidine-1-carboxamide] | 126 µM (≈ 41.8 µg/mL) | > 1000 nM
Cn1c(=O)oc2cc(C3CCN(C(=O)NCCOCc4ccccc4)C(C)(C)C3)ccc21 (stereo not drawn) [Example 27, N-(2-Benzyloxyethyl)-2,2-dimethyl-4-(3-methyl-2-oxo-1,3-benzoxazol-6-yl)piperidine-1-carboxamide] | 9.4 µM (≈ 4.11 µg/mL) | < 200 nM
CN1CCN(C(=O)NCCCCc2ccccc2)CC1c1ccc2c(c1)oc(=O)n2C (stereo not drawn) [Example 41, 4-Methyl-3-(3-methyl-2-oxo-1,3-benzoxazol-6-yl)-N-(4-phenylbutyl)piperazine-1-carboxamide] | 135 µM (≈ 57 µg/mL) | > 1000 nM
C[C@H]1CC(c2ccc3c(c2)oc(=O)n3C)CCN1C(=O)NCCc1ccccc1 (stereo partly drawn) [Example 21, (2S)-Methyl-4-(3-methyl-2-oxo-1,3-benzoxazol-6-yl)-N-(2-phenylethyl)piperidine-carboxamide] | 56 µM (≈ 22 µg/mL) | 200 to 1000 nM
Cn1c(=O)oc2cc(N3CC(C)(C)N(C(=O)NCCCCc4ccccc4)CC3=O)ccc21 [Example 65, 2,2-Dimethyl-4-(3-methyl-2-oxo-1,3-benzoxazol-6-yl)-5-oxo-N-(4-phenylbutyl)piperazine-1-carboxamide] | 18.9 µM (≈ 8.52 µg/mL) | < 200 nM
Cn1c(=O)oc2cc(C3CCN(C(=O)NCCCCc4ccccc4)C(=O)C3)ccc21 (stereo not drawn) [Example 35, 4-(3-Methyl-2-oxo-1,3-benzoxazol-6-yl)-2-oxo-N-(4-phenylbutyl)piperidine-1-carboxamide] | < 1 µM | > 1000 nM
